# From patent US11214586B2, “Rhodamine triplet state complex and preparation and photodynamic therapy (PDT) study thereof” (SOUTHERN UNIVERSITY OF SCIENCE AND TECHNOLOGY, priority 2018, dated 2022)
# Key:
# [1] = Singlet oxygen quantum yield; format: physicochemical
# Source text: The long-lived triplet excited state of rhodamine is anticipated to interact with molecular oxygen (^3O2) to form singlet oxygen (^1O2), which is useful for PDT applications. The ability of M-Rho to produce ^1O2 has been evaluated spectroscopically by the observation of ^1O2 emission at about 1270 nm (inset of FIG. 2b). Remarkable ^1O2 emission is observed in Ir-Rho, Re-Rho and Pt-Rho but not for Rh-Rho and bpy-Rho. By monitoring the diminution of the characteristic absorption of the ^1O2 scavenger 1,3-diphenylisobenzofuran (DPBF) at 410 nm, ^1O2 generation is also confirmed and the corresponding quantum yields (ϕΔ) for the complexes are determined (Table 1). […] The rate and quantum yield of ^1O2 generation are found to vary with different metal systems.
# Singlet oxygen quantum yield was determined by comparing the ^1O2 emission intensity of Rose Bengal and M-Rho.
# [2] = Singlet oxygen emission at about 1270 nm; format: physicochemical; details: in CH3CN
# Experimental: Singlet oxygen emission was detected by using FLS-980 spectrofluorometer. All of the compounds were dissolved in CH3CN. The absorbance at 532 nm was adjusted to be around 1.7 for all the compounds. Upon measurements, an 850 nm long-pass filter was inserted in between the sample and the detector to avoid many high-order diffraction from the visible emission.
# MCF-7 cells = test: Phototoxicity, CCK-8 assay and calcein-AM/PI staining; format: cell-based, human; details: 11-W lamp
# Experimental: • 1. MCF-7 cells were seeded at 8×10^3-1×10^4 cells/well in 96 well plates then incubated for 24 h in 5% CO2 at 37° C. The stock solutions of the complexes(10 mM in DMSO) were diluted to appropriate concentrations with the complete medium and added to the cells to give final complexes concentrations (1, 2, 5, 10 μM). After incubation for 2 h, the well plate were irradiated with 11 W lamp 30 min. To achieve more uniform irradiation, the entire well plate was gently orbited on the shaker. After the irradiation, the cells were again incubated for 2 h, after which the cytotoxicity was determined by CCK8 assay and expressed as a percent of the controls (cells exposed to light in the absence of the complexes). • 2. The MCF-7 cells(500 cells/well) were seeded in eight-well chambered coverglasses (lab-Tek, Nunc, USA), and then incubated for 24 h in 5% CO2 at 37° C. Next, added to complexes(rho-bpy, rho-bpy-Pt-ph, rho-bpy-Rh-ppy, rho-bpy-Re and rho-bpy-Ir-ppy) in medium make the final concentrations of 5 μM complexes. After incubation for 2 h, the eight-well plate were irradiated with 11 W lamp 30 min. The flowing, fixed with 4% paraformaldehyde solution. After staining with calcein-AM and (Propidium iodide) PI, Leica TCS SP5 confocal laser scanning microscope (GER) was used to observe the viable and dead cells.
# tumor cells = test: Selective uptake by flow cytometry, tumor cells versus normal cells; format: cell-based; details: among bpy-Rho and M-Rho
# Experimental: Tumor cells (MCF-7/A 549/HepG2/4T1) and normal cells (MCF-10A/293T/L02/NIH-3T3) (1×10^4 cells) was cultured in six-well plate for 12 h. and then Cells were changed with a medium containing 5 μM complexes (rho-bpy, rho-bpy-Pt-ph, rho-bpy-Rh-ppy, rho-bpy-Re and rho-bpy-Ir-ppy). Cells were washed three times with PBS after 2 h of incubation, Then the cells were harvested, and the fluorescence intensity of complexes were recorded by flow cytometer.
compound,measurement,setting,value
CCN(CC)c1ccc2c(-c3ccnc(-c4cc(C)ccn4)c3)c3ccc(=[N+](CC)CC)cc-3oc2c1.F[P-](F)(F)(F)(F)F.F[P-](F)(F)(F)(F)F.c1ccc(-c2cccc[c]2[Ir+][c]2ccccc2-c2ccccn2)nc1 [Ir-Rho],"rate and quantum yield of 1O2 generation, ranking",[1]; among M-Rho,highest QY
same,ΦΔ (singlet oxygen quantum yield),[1]; relative to rose bengal (ΦΔ = 0.76),0.62
same,1O2 emission at about 1270 nm,[2],Remarkable
same,cell death upon irradiation,MCF-7 cells; concentration of 10 μM,Significant cell death
same,"PDT performance, ranking",MCF-7 cells; among M-Rho,best PDT performance
same,"uptake efficiency and affinity to tumor cells, ranking",tumor cells,highest uptake efficiency and affinity
